Test results: PubChem BioAssay AID1259411 (Chemical Carcinogenesis Research Information System (CCRIS), 2018)
Active and inactive are the calls of the source. No rule for the calls is given here.

System: rodent carcinogenicity bioassays, tumor incidence
Assay: CCRIS carcinogenicity studies
Conditions: Dose: 0
In short: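 Archive of carcinogenicity, mutagenicity, tumor promotion and tumor inhibition results drawn from journals, NCI reports and other sources, expert-reviewed; covers 1985-2011 and is no longer updated.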

SMILES: O[C@H]1C=Cc2ccc3cc4ccccc4nc3c2[C@@H]1O
- carcinogen call (Species: MOUSE, Strain/Sex: SWISS/FEMALE, Route: INTRAPERITONEAL, 1.05 UMOL GIVEN AS 150 NMOL IN 5 µL DMSO WITHIN 24 HR OF BIRTH, 300 NMOL IN 10 µL DMSO ON D 8 OF LIFE, AND 600 NMOL I): inactive; negative
- carcinogen call (Species: MOUSE, Strain/Sex: SWISS/MALE, Route: INTRAPERITONEAL, 1.05 UMOL GIVEN AS 150 NMOL IN 5 µL DMSO WITHIN 24 HR OF BIRTH, 300 NMOL IN 10 µL DMSO ON D 8 OF LIFE, AND 600 NMOL I): inactive; negative

SMILES: O=C1c2ccccc2CN2C(=O)c3ccccc3CN12
- carcinogen call (Species: MOUSE, Strain/Sex: BALB/FEMALE, Route: ORAL, 300, 600, 1200 PPM IN DIET FOR 80 WK (STUDY DURATION: 120 WK), 300, 600, 1200 PPM IN DIET FOR 80 WK (STUDY DURATION: 120 WK), Tumor Site: Type of Lesion: LIVER: HEPATOCELLULAR ADENOMA OR CARCINOMA, ANGIOSARCOMA): active; positive
- carcinogen call (Species: MOUSE, Strain/Sex: BALB/MALE, Route: ORAL, 300, 600, 1200 PPM IN DIET FOR 80 WK (STUDY DURATION: 120 WK), 300, 600, 1200 PPM IN DIET FOR 80 WK (STUDY DURATION: 120 WK), Tumor Site: Type of Lesion: LIVER: ANGIOMA, ANGIOSARCOMA): active; positive

SMILES: CC1=C[C@H]2O[C@@H]3[C@H](O)C[C@](C)([C@@]2(CO)[C@H](O)C1=O)[C@]31CO1
- carcinogen call (Species: MOUSE, Strain/Sex: B6C3F1/FEMALE, Route: ORAL, 1, 5, 10 PPM IN DIET FOR 2 YR (STUDY DURATION: 2 YR), 1, 5, 10 PPM IN DIET FOR 2 YR (STUDY DURATION: 2 YR)): inactive; negative
- carcinogen call (Species: MOUSE, Strain/Sex: B6C3F1/MALE, Route: ORAL, 1, 5, 10 PPM IN DIET FOR 2 YR (STUDY DURATION: 2 YR), 1, 5, 10 PPM IN DIET FOR 2 YR (STUDY DURATION: 2 YR)): inactive; negative

SMILES: C[C@H](CCC(=O)O)[C@H]1CC[C@H]2[C@@H]3CC[C@@H]4C[C@H](O)CC[C@]4(C)[C@H]3CC[C@]12C
- carcinogen call (Species: MOUSE, Strain/Sex: B6C3F1/FEMALE, Route: GAVAGE, 125, 250 MG/KG IN CORN OIL, 125, 250 MG/KG IN CORN OIL): inactive; negative
- carcinogen call (Species: MOUSE, Strain/Sex: B6C3F1/MALE, Route: GAVAGE, 125, 250 MG/KG IN CORN OIL, 125, 250 MG/KG IN CORN OIL): inactive; negative
- carcinogen call (Species: RAT, Strain/Sex: F344/FEMALE, Route: GAVAGE, 250, 500 MG/KG IN CORN OIL, 250, 500 MG/KG IN CORN OIL): inactive; negative
- carcinogen call (Species: RAT, Strain/Sex: F344/MALE, Route: GAVAGE, 250, 500 MG/KG IN CORN OIL, 250, 500 MG/KG IN CORN OIL): inactive; negative

SMILES: CC1=C(C(=O)OCCN(Cc2ccccc2)c2ccccc2)C(c2cccc([N+](=O)[O-])c2)C(P2(=O)OCC(C)(C)CO2)=C(C)N1 (stereo unspecified)
- carcinogen call (Species: MOUSE, Strain/Sex: B6C3F1/FEMALE, Route: ORAL, 500, 1600, 5000 PPM IN FEED FOR 104 WK (STUDY DURATION: 104 WK), 500, 1600, 5000 PPM IN FEED FOR 104 WK (STUDY DURATION: 104 WK)): inactive; negative
- carcinogen call (Species: MOUSE, Strain/Sex: B6C3F1/MALE, Route: ORAL, 500, 1600, 5000 PPM IN FEED FOR 104 WK (STUDY DURATION: 104 WK), 500, 1600, 5000 PPM IN FEED FOR 104 WK (STUDY DURATION: 104 WK)): inactive; negative
- carcinogen call (Species: RAT, Strain/Sex: F344/FEMALE, Route: ORAL, 400, 1200, 3600 PPM IN FEED FOR 104 WK (STUDY DURATION: 104 WK), 400, 1200, 3600 PPM IN FEED FOR 104 WK (STUDY DURATION: 104 WK)): inactive; negative
- carcinogen call (Species: RAT, Strain/Sex: F344/MALE, Route: ORAL, 400, 1200, 3600 PPM IN FEED FOR 104 WK (STUDY DURATION: 104 WK), 400, 1200, 3600 PPM IN FEED FOR 104 WK (STUDY DURATION: 104 WK)): inactive; negative

SMILES: O[C@H]1C=Cc2c(ccc3cccnc23)[C@@H]1O
- carcinogen call (Species: MOUSE, Strain/Sex: CD-1/FEMALE, Route: INTRAPERITONEAL, 5, 10 AND 20 µL OF A 0.05 MOLAR SOLUTION ON DAYS 1, 8 AND 15 OF LIFE RESPECTIVELY (TOTAL DOSE: 1.75 UMOL) (STUDY DURA, 5, 10 AND 20 µL OF A 0.05 MOLAR SOLUTION ON DAYS 1, 8 AND 15 OF LIFE RESPECTIVELY (TOTAL DOSE: 1.75 UMOL) (STUDY DURA): inactive; negative
- carcinogen call (Species: MOUSE, Strain/Sex: CD-1/MALE, Route: INTRAPERITONEAL, 5, 10 AND 20 µL OF A 0.05 MOLAR SOLUTION ON DAYS 1, 8 AND 15 OF LIFE RESPECTIVELY (TOTAL DOSE: 1.75 UMOL) (STUDY DURA, 5, 10 AND 20 µL OF A 0.05 MOLAR SOLUTION ON DAYS 1, 8 AND 15 OF LIFE RESPECTIVELY (TOTAL DOSE: 1.75 UMOL) (STUDY DURA): inactive; negative

SMILES: Clc1cccc(-c2cc(Cl)cc(Cl)c2)c1
- carcinogen call (Species: RAT, Strain/Sex: SPRAGUE-DAWLEY/FEMALE, Route: ORAL, 50, 100, 200 PPM IN DIET FOR THE DURATION OF STUDY (STUDY DURATION: 24 MO), 50, 100, 200 PPM IN DIET FOR THE DURATION OF STUDY (STUDY DURATION: 24 MO), Tumor Site: Type of Lesion: LIVER: TUMOR): active; positive
- carcinogen call (Species: RAT, Strain/Sex: SPRAGUE-DAWLEY/MALE, Route: ORAL, 50, 100, 200 PPM IN DIET FOR THE DURATION OF STUDY (STUDY DURATION: 24 MO), 50, 100, 200 PPM IN DIET FOR THE DURATION OF STUDY (STUDY DURATION: 24 MO)): inactive; negative

SMILES: COc1nn(CSP(=S)(OC)OC)c(=O)s1
- carcinogen call (Species: DOG, Strain/Sex: BEAGLE/FEMALE, Route: ORAL, 0.5, 2, 4, 40, 140 PPM IN DIET FOR 1 YR (STUDY DURATION: 1 YR), 0.5, 2, 4, 40, 140 PPM IN DIET FOR 1 YR (STUDY DURATION: 1 YR)): inactive; negative
- carcinogen call (Species: DOG, Strain/Sex: BEAGLE/MALE, Route: ORAL, 0.5, 2, 4, 40, 140 PPM IN DIET FOR 1 YR (STUDY DURATION: 1 YR), 0.5, 2, 4, 40, 140 PPM IN DIET FOR 1 YR (STUDY DURATION: 1 YR)): inactive; negative

SMILES: CC(O)CN(N=O)C(N)=O (stereo unspecified)
- carcinogen call (Species: HAMSTER, Strain/Sex: SYRIAN/FEMALE, Route: GAVAGE, 16 MG/ML ((0.2 ML OF A SOLUTION IN ETHYL ACETATE/CORN OIL (1:2)) 1/WK FOR 24 WK (STUDY DURATION: LIFE SPAN), Tumor Site: Type of Lesion: LIVER: HEMANGIOSARCOMA, SPLEEN: HEMANGIOSARCOMA, FORESTOMACH: SQUAMOUS CELL CARCINOMA OR PAPILLOMA, Tumor Site: Type of Lesion: LIVER: HEMANGIOSARCOMA, SPLEEN: HEMANGIOSARCOMA, FORESTOMACH: SQUAMOUS CELL CARCINOMA OR PAPILLOMA): active; positive
- carcinogen call (Species: RAT, Strain/Sex: F344/FEMALE, Route: GAVAGE, 8 MG/ML (TOTAL DOSE 0; 0.4 MMOL) IN 2 ML ETHYL ACETATE AND CORN OIL (1:2) 2/WK FOR 18 WK (STUDY DURATION: LIFETIME), 8 MG/ML (TOTAL DOSE 0; 0.4 MMOL) IN 2 ML ETHYL ACETATE AND CORN OIL (1:2) 2/WK FOR 18 WK (STUDY DURATION: LIFETIME), Tumor Site: Type of Lesion: THYMUS: LYMPHOMA): active; positive
- carcinogen call (Species: RAT, Strain/Sex: F344/FEMALE, Route: GAVAGE, 8 MG/ML IN 0.2 ML ETHYL ACETATE AND CORN OIL 2/WK FOR 18 WK (STUDY DURATION: LIFESPAN), Tumor Site: Type of Lesion: THYMUS: TUMOR): active; positive
- carcinogen call (Species: RAT, Strain/Sex: F344/FEMALE, Route: INTRAVESICULAR, 3.2 MG 2/WK FOR 30 WK (STUDY DURATION: LIFETIME), Tumor Site: Type of Lesion: BLADDER: TUMOR): active; positive
- carcinogen call (Species: RAT, Strain/Sex: F344/MALE, Route: GAVAGE, 8 MG/ML (TOTAL DOSE 0; 0.4 MMOL) IN 2 ML ETHYL ACETATE AND CORN OIL (1:2) 2/WK FOR 18 WK (STUDY DURATION: LIFETIME), 8 MG/ML (TOTAL DOSE 0; 0.4 MMOL) IN 2 ML ETHYL ACETATE AND CORN OIL (1:2) 2/WK FOR 18 WK (STUDY DURATION: LIFETIME), Tumor Site: Type of Lesion: THYMUS: LYMPHOMA): active; positive
- carcinogen call (Species: RAT, Strain/Sex: F344/MALE, Route: GAVAGE, 8 MG/ML IN 0.2 ML ETHYL ACETATE AND CORN OIL 2/WK FOR 18 WK (STUDY DURATION: LIFESPAN), Tumor Site: Type of Lesion: THYMUS: TUMOR): active; positive
